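These data come from cells grown in 96-well plates and exposed to compound for 48 hours at five concentrations. TGI is the concentration that stops growth completely.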 Where a SMILES comes first, the peptide text is derived from it. The star is where a group is joined. Boc = CC(C)(C)OC(=O)*
Assays:
Experiment in all cases: NCI-60 cell line screen, 48 h
[1] = system: SK-MEL-28 melanoma
[2] = system: A498 renal
[3] = system: M14 melanoma
[4] = system: HT29 colon
[5] = system: OVCAR-5 ovarian
[6] = system: EKVX NSCLC
[7] = system: T-47D breast
[8] = system: HL-60(TB) leukemia
[9] = system: SR leukemia
[10] = system: SK-MEL-2 melanoma

`CCN(CCO)CC1COc2ccccc2O1` (centres undefined) gave a TGI [1] greater than 100 µM, a TGI [2] greater than 100 µM and a TGI [3] greater than 100 µM. For the same compound, the TGI [4] was greater than 100 µM, the TGI [5] was greater than 100 µM and the TGI [6] was greater than 100 µM. It also gave a TGI [7] greater than 100 µM, a TGI [8] greater than 100 µM and a TGI [9] greater than 100 µM.
`C=CCOC(=O)CC[N+]1=CCC(c2ccccc2)(c2ccccc2)O1` was tested, and the TGI [1] was greater than 100 µM, the TGI [2] was greater than 100 µM and the TGI [3] was greater than 100 µM. For the same compound, the TGI [4] was greater than 100 µM, the TGI [5] was greater than 100 µM and the TGI [6] was greater than 100 µM. For the same compound, the TGI [7] was greater than 100 µM and the TGI [10] was greater than 100 µM.
For `CC(=O)N/N=C1\NC(=O)C[C@H]2[C@@H]3CC=C4C[C@@H](OC(C)=O)CC[C@]4(C)[C@H]3CC[C@]12C`, the TGI [1] was 33 µM, the TGI [2] was 35.2 µM and the TGI [3] was greater than 100 µM. For the same compound, the TGI [4] was greater than 100 µM, the TGI [5] was greater than 100 µM and the TGI [6] was greater than 100 µM. The TGI [7] was greater than 100 µM, the TGI [8] was greater than 100 µM and the TGI [10] was greater than 100 µM.
For `COC(=O)c1c2c(cc3c1CC1(C3)Cc3cc4c(c(C(=O)OC)c3C1)CCCC4)CCCC2`, the TGI [2] was greater than 100 µM, the TGI [3] was greater than 100 µM and the TGI [4] was greater than 100 µM. It also gave a TGI [5] greater than 100 µM, a TGI [6] greater than 100 µM and a TGI [7] greater than 100 µM. It also gave a TGI [8] of 74.5 µM and a TGI [10] of 5.18 µM.
Compound `O=C(CNc1ccccc1Cl)Nn1c(-c2ccccc2)nc2ccccc2c1=O` has a TGI [1] of 55.9 µM, a TGI [2] greater than 100 µM and a TGI [3] greater than 10 µM. For the same compound, the TGI [4] was greater than 10 µM, the TGI [5] was greater than 10 µM and the TGI [6] was 36.8 µM. The TGI [8] was 65.7 µM and the TGI [9] was 97.6 µM.
`O=C1C[C@H](Sc2ccccc2)C2(OCCO2)[C@@H](Sc2ccccc2)C1` gave a TGI [1] of 10.4 µM, a TGI [2] greater than 66.7 µM and a TGI [3] of 6.52 µM. The TGI [4] was 3.7 µM, the TGI [5] was 12.3 µM and the TGI [6] was 17.1 µM. For the same compound, the TGI [7] was greater than 43.5 µM, the TGI [10] was 26.3 µM and the TGI [9] was 1.22 µM.
Work on `C=CC[C@]12C[C@@H](C(=O)OC)N(C(=O)OC)[C@H]1N(S(=O)(=O)c1ccccc1)c1ccccc12` yielded a TGI [1] greater than 100 µM, a TGI [2] greater than 100 µM and a TGI [4] greater than 100 µM. For the same compound, the TGI [5] was greater than 100 µM, the TGI [6] was greater than 100 µM and the TGI [7] was greater than 100 µM. The TGI [8] was greater than 100 µM, the TGI [10] was greater than 100 µM and the TGI [9] was greater than 100 µM.
`BrC/C=C/C[P+](c1ccccc1)(c1ccccc1)c1ccccc1` showed a TGI [1] greater than 100 µM, a TGI [3] of 82.4 µM and a TGI [5] greater than 100 µM. It also gave a TGI [8] of 39.2 µM and a TGI [10] of 25.7 µM.
For `Clc1ccc(-c2nn3c(-c4ccncc4)nnc3s2)cc1`, the TGI [3] was greater than 100 µM, the TGI [4] was greater than 100 µM and the TGI [5] was greater than 100 µM. The TGI [6] was greater than 100 µM, the TGI [7] was greater than 100 µM and the TGI [8] was greater than 100 µM. The TGI [10] was greater than 100 µM and the TGI [9] was greater than 100 µM.
Work on `Cc1nn(C(=O)Cc2ccccc2)c2c1C(c1ccc(O)cc1)SC(N)=N2` (centres undefined) yielded a TGI [1] greater than 100 µM, a TGI [2] greater than 100 µM and a TGI [3] greater than 100 µM. For the same compound, the TGI [4] was greater than 100 µM, the TGI [6] was greater than 100 µM and the TGI [7] was greater than 100 µM. The TGI [8] was greater than 100 µM and the TGI [9] was greater than 100 µM.
With `O=C(NCCN1CCOCC1)c1ccc2cc(C(=O)N3CC(CCl)c4ccc([N+](=O)[O-])cc43)[nH]c2c1` (centres undefined) the TGI [1] was greater than 100 µM, the TGI [2] was 20 µM and the TGI [3] was greater than 100 µM. It also gave a TGI [4] of 24.7 µM, a TGI [5] greater than 100 µM and a TGI [6] of 86.3 µM. For the same compound, the TGI [7] was greater than 100 µM, the TGI [8] was 94.7 µM and the TGI [10] was 32.7 µM.
In the case of `COc1cc(C2SCC(=O)N2c2ccc(NC(=O)c3ccc(N4C(=O)CSC4c4cc(OC)c(OC)c(OC)c4)cc3)cc2)cc(OC)c1OC` (centres undefined), the TGI [1] is reported as greater than 100 µM, the TGI [3] is reported as greater than 100 µM and the TGI [4] is reported as greater than 100 µM. For the same compound, the TGI [5] was greater than 100 µM, the TGI [6] was greater than 100 µM and the TGI [7] was greater than 100 µM. It also gave a TGI [10] greater than 100 µM.
Work on `COc1cc(NS(C)(=O)=O)ccc1N1Cc2cnc3ccc4[nH]c(C)cc1c4c23` yielded a TGI [1] greater than 100 µM, a TGI [2] greater than 100 µM and a TGI [3] greater than 100 µM. For the same compound, the TGI [4] was greater than 100 µM, the TGI [5] was greater than 100 µM and the TGI [6] was greater than 100 µM. The TGI [8] was greater than 100 µM and the TGI [10] was greater than 100 µM.
Work on `CC(C)(C)OC(=O)NCC(=O)NCC(=O)NCC(=O)NCC(=O)O` (Boc-GGGG-OH) yielded a TGI [1] greater than 100 µM, a TGI [2] greater than 100 µM and a TGI [3] greater than 100 µM. For the same compound, the TGI [4] was greater than 100 µM, the TGI [5] was greater than 100 µM and the TGI [6] was greater than 100 µM. It also gave a TGI [7] greater than 100 µM, a TGI [8] greater than 100 µM and a TGI [9] greater than 100 µM.
`C/C=C/C=C/c1nc(C#N)c(N)o1` was tested, and the TGI [1] was greater than 100 µM, the TGI [3] was greater than 100 µM and the TGI [4] was greater than 100 µM. It also gave a TGI [5] greater than 100 µM, a TGI [6] greater than 100 µM and a TGI [7] greater than 100 µM. For the same compound, the TGI [10] was greater than 100 µM and the TGI [9] was greater than 100 µM.
Work on `N=S(c1ccccc1)c1ccccc1[N+](=O)[O-]` (centres undefined) yielded a TGI [2] greater than 100 µM, a TGI [3] of 27.7 µM and a TGI [4] of 38.7 µM. For the same compound, the TGI [5] was 34.7 µM, the TGI [6] was 38.5 µM and the TGI [8] was 36.5 µM. For the same compound, the TGI [10] was 67.7 µM and the TGI [9] was 50.1 µM.
`C=CCNC(=S)/N=C/c1c(O)c2ccccc2oc1=O` showed a TGI [1] greater than 100 µM, a TGI [2] greater than 100 µM and a TGI [3] greater than 100 µM. It also gave a TGI [4] greater than 100 µM, a TGI [5] greater than 100 µM and a TGI [6] greater than 100 µM. It also gave a TGI [8] greater than 100 µM and a TGI [10] greater than 100 µM.
Work on `COc1cc(C2CC(C)(Nc3ccccc3)Oc3cc4c(cc32)OCO4)cc(OC)c1OC` (centres undefined) yielded a TGI [1] greater than 100 µM, a TGI [2] greater than 100 µM and a TGI [3] greater than 63.1 µM. The TGI [4] was 0.619 µM, the TGI [5] was greater than 34.3 µM and the TGI [6] was greater than 100 µM. For the same compound, the TGI [10] was greater than 29.4 µM and the TGI [9] was greater than 60.7 µM.
Compound `O=c1ccc2cc3ccc4cccc5ccc(c2o1)c3c45` has a TGI [1] greater than 100 µM, a TGI [2] of 44.9 µM and a TGI [3] greater than 100 µM. For the same compound, the TGI [4] was greater than 100 µM, the TGI [6] was greater than 100 µM and the TGI [8] was greater than 100 µM. For the same compound, the TGI [10] was greater than 100 µM.
`CCN(C(=S)N[C@@H](Cc1ccccc1)C(=O)N[C@@H](CC(C)C)C(=O)OC)c1ccccc1` was tested, and the TGI [1] was greater than 100 µM, the TGI [3] was greater than 100 µM and the TGI [4] was greater than 100 µM. It also gave a TGI [5] greater than 100 µM, a TGI [6] greater than 100 µM and a TGI [7] greater than 100 µM. For the same compound, the TGI [10] was greater than 100 µM and the TGI [9] was 61.6 µM.
In the case of `COc1ccc2cc3c4cc5c(cc4cc[n+]3cc2c1OC)OCO5`, the TGI [1] is reported as 19.4 µM, the TGI [2] is reported as greater than 100 µM and the TGI [3] is reported as 68 µM. It also gave a TGI [4] greater than 100 µM, a TGI [5] greater than 100 µM and a TGI [6] greater than 100 µM. It also gave a TGI [7] greater than 100 µM, a TGI [8] greater than 65.5 µM and a TGI [10] greater than 57.8 µM.
In the case of `Cc1cc2[nH]c3[nH]c(=O)[nH]c(=O)c3c2cc1C`, the TGI [2] is reported as greater than 100 µM, the TGI [3] is reported as greater than 100 µM and the TGI [4] is reported as greater than 100 µM. The TGI [5] was greater than 100 µM, the TGI [6] was greater than 100 µM and the TGI [7] was greater than 100 µM. The TGI [10] was greater than 100 µM and the TGI [9] was greater than 100 µM.
Compound `Cc1c2c(n(CCc3ccc(Cl)cc3)c1C)NN=C(C#N)S2(=O)=O` has a TGI [1] greater than 100 µM, a TGI [3] greater than 100 µM and a TGI [4] greater than 100 µM. It also gave a TGI [5] greater than 100 µM, a TGI [6] greater than 100 µM and a TGI [7] greater than 100 µM. The TGI [10] was greater than 100 µM and the TGI [9] was greater than 100 µM.
Work on `Cc1cc(=O)c2c([nH]1)NS(=O)(=O)NC2=O` yielded a TGI [1] greater than 100 µM, a TGI [2] greater than 100 µM and a TGI [3] greater than 100 µM. The TGI [4] was greater than 100 µM, the TGI [6] was greater than 100 µM and the TGI [8] was greater than 100 µM. The TGI [10] was greater than 100 µM and the TGI [9] was greater than 100 µM.

Reference: PubChem BioAssay (NCI)
